Experimental data reported in patent US20250382266A1, “5-HT2A RECEPTOR LIGANDS” (Psilera Inc., priority 2022, published 2025).

Legend:
5-HT7 = 5-HT7 (Homo sapiens, UniProt P34969); test: radioligand binding at 5-HT7; settings: 50 nM; radioligand [3H]LSD
Protocol: (§1) In vitro pharmacological assessment of this compound (N-(2-(1H-indol-3-yl)ethyl)-2-(1H-indol-3-yl)-N-methylethan-1-amine) was performed using radioligand binding at various serotonergic and sigma receptors. The results appear in table 2 below

Sigma 1 = Sigma 1 (Homo sapiens, UniProt Q99720); test: radioligand binding at Sigma 1; settings: 500 nM; radioligand [3H](+)pentazocine
Sigma 1, sequence (Q99720 whole entry): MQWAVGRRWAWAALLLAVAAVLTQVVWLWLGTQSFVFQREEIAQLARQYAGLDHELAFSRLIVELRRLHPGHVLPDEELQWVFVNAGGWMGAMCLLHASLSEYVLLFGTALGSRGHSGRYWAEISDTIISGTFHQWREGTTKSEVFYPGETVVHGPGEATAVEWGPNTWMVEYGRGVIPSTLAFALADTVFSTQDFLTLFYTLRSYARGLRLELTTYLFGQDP
Protocol: as §1

5-HT1A = target: T1, 5-HT1A (Homo sapiens, UniProt P08908); test: radioligand binding at 5-HT1A; settings: 50 nM; radioligand [3H]8-OH-DPAT
T1 sequence (P08908 1-422): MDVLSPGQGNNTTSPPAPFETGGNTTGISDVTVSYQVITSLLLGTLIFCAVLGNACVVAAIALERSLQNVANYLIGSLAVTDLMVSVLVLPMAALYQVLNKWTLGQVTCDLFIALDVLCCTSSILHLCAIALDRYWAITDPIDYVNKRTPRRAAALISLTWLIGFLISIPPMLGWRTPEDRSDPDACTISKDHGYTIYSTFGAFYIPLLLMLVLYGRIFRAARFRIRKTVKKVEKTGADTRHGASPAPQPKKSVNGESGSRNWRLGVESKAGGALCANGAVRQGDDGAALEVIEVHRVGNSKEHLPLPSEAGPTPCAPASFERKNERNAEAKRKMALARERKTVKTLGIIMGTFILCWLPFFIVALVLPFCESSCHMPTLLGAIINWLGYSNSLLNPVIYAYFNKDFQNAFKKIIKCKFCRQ
Protocol: as §1

5-HT2C = target: T2, 5-HT2C (Homo sapiens, UniProt P28335); test: radioligand binding at 5-HT2C; settings: 50 nM; radioligand [3H]mesulergine
T2 sequence (P28335 33-458): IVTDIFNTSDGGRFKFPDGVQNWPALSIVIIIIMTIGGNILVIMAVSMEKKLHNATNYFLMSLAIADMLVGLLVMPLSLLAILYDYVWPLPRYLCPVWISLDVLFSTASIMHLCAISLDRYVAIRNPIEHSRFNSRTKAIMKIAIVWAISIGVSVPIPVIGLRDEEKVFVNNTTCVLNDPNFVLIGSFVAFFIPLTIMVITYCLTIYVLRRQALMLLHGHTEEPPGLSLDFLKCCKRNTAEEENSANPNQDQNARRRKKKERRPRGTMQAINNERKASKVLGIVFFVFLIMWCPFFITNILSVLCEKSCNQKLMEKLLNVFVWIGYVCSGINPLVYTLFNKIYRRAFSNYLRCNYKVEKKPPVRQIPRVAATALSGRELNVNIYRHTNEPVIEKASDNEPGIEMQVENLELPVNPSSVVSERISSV
Protocol: as §1

5-HT2B = 5-HT2B (Homo sapiens, UniProt P41595); test: radioligand binding at 5-HT2B; settings: 50 nM; radioligand [3H]mesulergine
5-HT2B, sequence (P41595 whole entry, species assumed): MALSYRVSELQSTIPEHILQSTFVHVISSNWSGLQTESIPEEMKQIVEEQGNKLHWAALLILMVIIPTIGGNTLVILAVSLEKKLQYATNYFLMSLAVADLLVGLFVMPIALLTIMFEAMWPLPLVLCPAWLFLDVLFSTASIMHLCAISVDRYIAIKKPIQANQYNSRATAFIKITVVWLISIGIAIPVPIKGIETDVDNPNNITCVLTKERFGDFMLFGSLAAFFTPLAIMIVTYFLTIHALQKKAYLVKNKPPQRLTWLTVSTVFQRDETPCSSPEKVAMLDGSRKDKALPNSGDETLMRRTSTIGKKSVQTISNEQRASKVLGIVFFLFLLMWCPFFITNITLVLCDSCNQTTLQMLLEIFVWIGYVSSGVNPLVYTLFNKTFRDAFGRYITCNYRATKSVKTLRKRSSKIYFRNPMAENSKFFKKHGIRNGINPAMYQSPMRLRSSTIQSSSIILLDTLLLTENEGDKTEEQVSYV
Protocol: as §1

5-HT2A = 5-HT2A (Homo sapiens, UniProt P28223); test: radioligand binding at 5-HT2A; settings: 50 nM; radioligand [3H]ketanserin
5-HT2A, sequence (P28223 whole entry): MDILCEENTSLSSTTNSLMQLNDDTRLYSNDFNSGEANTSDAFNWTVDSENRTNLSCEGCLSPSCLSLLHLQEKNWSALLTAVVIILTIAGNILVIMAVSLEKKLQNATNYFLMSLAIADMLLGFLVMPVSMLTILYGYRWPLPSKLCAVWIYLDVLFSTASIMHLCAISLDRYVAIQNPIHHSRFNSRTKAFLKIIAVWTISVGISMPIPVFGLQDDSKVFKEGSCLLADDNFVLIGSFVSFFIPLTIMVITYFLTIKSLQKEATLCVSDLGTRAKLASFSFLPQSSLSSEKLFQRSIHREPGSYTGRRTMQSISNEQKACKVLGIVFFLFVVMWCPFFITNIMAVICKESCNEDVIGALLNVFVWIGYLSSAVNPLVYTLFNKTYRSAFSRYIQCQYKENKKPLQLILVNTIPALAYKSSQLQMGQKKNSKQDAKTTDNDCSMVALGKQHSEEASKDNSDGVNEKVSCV
Protocol: as §1

Sigma 2 = Sigma 2 (Homo sapiens, UniProt Q5BJF2); test: radioligand binding at Sigma 2; settings: 500 nM; radioligand [3H]DTG + (+)pentazocine
Sigma 2, sequence (Q5BJF2 whole entry): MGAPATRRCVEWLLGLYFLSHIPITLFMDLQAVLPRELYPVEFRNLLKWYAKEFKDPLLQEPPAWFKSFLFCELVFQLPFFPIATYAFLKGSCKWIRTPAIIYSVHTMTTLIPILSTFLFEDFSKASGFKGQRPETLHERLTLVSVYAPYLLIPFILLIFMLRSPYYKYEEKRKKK
Protocol: as §1

5-HT6 = 5-HT6 (Homo sapiens, UniProt P50406); test: radioligand binding at 5-HT6; settings: 50 nM; radioligand [3H]LSD
5-HT6, sequence (P50406 whole entry, species assumed): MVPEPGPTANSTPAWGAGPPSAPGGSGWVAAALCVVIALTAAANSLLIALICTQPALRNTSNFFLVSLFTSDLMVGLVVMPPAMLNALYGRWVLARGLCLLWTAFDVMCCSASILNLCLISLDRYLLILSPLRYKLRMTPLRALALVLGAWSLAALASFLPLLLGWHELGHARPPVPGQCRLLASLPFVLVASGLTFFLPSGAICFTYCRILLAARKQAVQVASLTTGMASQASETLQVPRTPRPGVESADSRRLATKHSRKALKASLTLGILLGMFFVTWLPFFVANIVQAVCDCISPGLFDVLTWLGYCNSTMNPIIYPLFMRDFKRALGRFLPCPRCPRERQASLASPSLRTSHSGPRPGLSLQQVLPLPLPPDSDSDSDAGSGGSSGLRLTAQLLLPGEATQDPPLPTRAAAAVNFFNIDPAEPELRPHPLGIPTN
Protocol: as §1

5-HT7, sequence (P34969 whole entry, species assumed): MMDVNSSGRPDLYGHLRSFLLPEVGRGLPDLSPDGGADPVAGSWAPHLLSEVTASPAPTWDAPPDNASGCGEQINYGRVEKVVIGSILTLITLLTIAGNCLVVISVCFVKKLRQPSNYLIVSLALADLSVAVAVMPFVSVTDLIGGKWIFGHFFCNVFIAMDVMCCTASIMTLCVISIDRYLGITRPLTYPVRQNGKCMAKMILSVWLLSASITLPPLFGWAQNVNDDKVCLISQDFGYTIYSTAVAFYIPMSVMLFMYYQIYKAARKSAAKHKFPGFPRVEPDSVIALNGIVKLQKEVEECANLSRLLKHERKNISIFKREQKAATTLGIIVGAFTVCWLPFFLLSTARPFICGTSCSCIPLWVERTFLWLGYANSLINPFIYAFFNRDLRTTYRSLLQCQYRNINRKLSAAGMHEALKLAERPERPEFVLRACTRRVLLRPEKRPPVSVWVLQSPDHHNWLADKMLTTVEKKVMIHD

Work on `CN(CCc1c[nH]c2ccccc12)CCc1c[nH]c2ccccc12` [Example 1, N-(2-(1H-indol-3-yl)ethyl)-2-(1H-indol-3-yl)-N-methylethan-1-amine] yielded an inhibition at 0.05 µM (5-HT7) of 79.7%, an inhibition at 0.5 µM (Sigma 1) of 21.7% and an inhibition at 0.05 µM (5-HT1A) of 70.9%. It also gave an inhibition at 0.05 µM (5-HT2C) of 72.8%, an inhibition at 0.05 µM (5-HT2B) of 96.8% and an inhibition at 0.05 µM (5-HT2A) of 82.7%. It also gave an inhibition at 0.5 µM (Sigma 2) of 26.1% and an inhibition at 0.05 µM (5-HT6) of 26.3%.
